Source: the NIST ThermoML archive (doi:10.1021/je050443o)

Test: wn = mass fraction of the nth substance listed
Conditions: 101.33 kPa, Liquid

O=S(=O)(O)O [sulfuric acid] + O
Conditions | mass density, w1 = 0.1 [kg/m3] | mass density, w1 = 0.2 [kg/m3] | mass density, w1 = 0.3 [kg/m3] | viscosity, w1 = 0.1 [mPa·s] | viscosity, w1 = 0.2 [mPa·s] | viscosity, w1 = 0.3 [mPa·s]
293.15 K | 1066.2 | 1139.5 | 1218.3 | 1.231 | 1.55 | 2.009
303.15 K | 1061.9 | 1133.3 | 1211.7 | 0.9804 | 1.229 | 1.601
313.15 K | 1056.8 | 1126.9 | 1204.3 | 0.7896 | 0.9887 | 1.306
323.15 K | 1051.8 | 1121.1 | 1198 | 0.661 | 0.8311 | 1.1
333.15 K | 1046.3 | 1115.3 | 1190.7 | 0.5598 | 0.7105 | 0.9426
343.15 K | 1039.6 | 1108.8 | 1184.2 | 0.4902 | 0.6409 | 0.8467
